# Experimental data reported in ChEMBL document CHEMBL5131397, “Discovery and Optimization of Pyrazole Amides as Inhibitors of ELOVL1” (J Med Chem, 2021).
# Activity calls are given as the source filed them. The rule behind the calls is not given here.
# Legend:
# [1] = Toxicity in Cynomolgus monkey assessed as skin lesions at 5 to 50 mg/kg/day, po administered for 14 days; type: organism-based, Macaca fascicularis; settings: in vivo, 336 h, dose 5-50 mg/kg/day, time 14 day
# Mus musculus [2] = experiment: Reduction of C26:0 LPC level in ABCD1 knock out mouse blood at 1 to 16 mg/kg, po qd measured after 6 days of dosing by LC-MS/MS analysis; type: functional, organism-based; settings: dose 1-16 mg/kg, time 6.0 day
# [3] = biological target: T1, Very long chain fatty acid elongase 1 (Homo sapiens, UniProt Q9BW60); experiment: Inhibition of ELOVL1 in AMN 1 patient-derived fibroblast assessed as reduction of C26:0 VLCFA synthesis incubated for 48 hrs by cellular assay; type: cell-based
# T1 sequence (Q9BW60 whole entry): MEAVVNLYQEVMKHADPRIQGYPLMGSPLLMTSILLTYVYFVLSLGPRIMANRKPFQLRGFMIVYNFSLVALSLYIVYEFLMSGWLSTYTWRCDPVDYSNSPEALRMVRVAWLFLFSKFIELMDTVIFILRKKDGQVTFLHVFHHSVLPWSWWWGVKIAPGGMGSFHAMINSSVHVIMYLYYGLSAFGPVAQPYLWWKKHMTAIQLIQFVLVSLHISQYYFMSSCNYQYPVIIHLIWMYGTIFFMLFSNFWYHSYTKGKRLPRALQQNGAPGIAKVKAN
# [4] = Reduction in C26:0/C16:0 LPC level in ABCD1 knock out mouse CNS at 5 mg/kg, po qd measured after 8 months of dosing by LC-MS/MS analysis; type: functional; parameters: scale not given: the % may be the effect or the level left; settings: 5840 h
# [5] = Toxicity in Sprague-Dawley rat assessed as decrease in body weight at 5 to 50 mg/kg/day, po administered for 2 weeks; type: organism-based; settings: in vivo, 336 h, dose 5-50 mg/kg/day
# [6] = biological target: T2, Very long chain fatty acid elongase 1 (Homo sapiens) (UniProt Q9BW60); experiment: Inhibition of ELOVL-1 in human HEK2936E cells assessed as reduction in C24:0 lysophosphatidyl choline synthesis at 100 nM in presence of 13C-labeled acetate measured after 48 hrs; type: cell-based
# T2 sequence (whole entry): T1 sequence (Q9BW60 whole entry)
# HepG2 = experiment: Cytotoxicity against human HepG2 cells assessed as decrease in intracellular ATP levels incubated for 72 hrs by Cell Titer-Glo luminescence assay; type: functional; settings: read-out: TC50 (the source's name)
# [7] = AUC (infinity) in Beagle dog at 3 mg/kg, po upto 24 hrs by LC/MS/MS analysis; type: ADME, organism-based, Canis lupus familiaris; parameters: time < 24 hrs, dose 3 mg/kg, route po; settings: in vivo
# [8] = biological target: T3, Serine/threonine-protein kinase TNNI3K (Homo sapiens) (UniProt Q59H18); experiment: Inhibition of TNNI3K (unknown origin) at 10 uM
# T3 sequence (whole entry): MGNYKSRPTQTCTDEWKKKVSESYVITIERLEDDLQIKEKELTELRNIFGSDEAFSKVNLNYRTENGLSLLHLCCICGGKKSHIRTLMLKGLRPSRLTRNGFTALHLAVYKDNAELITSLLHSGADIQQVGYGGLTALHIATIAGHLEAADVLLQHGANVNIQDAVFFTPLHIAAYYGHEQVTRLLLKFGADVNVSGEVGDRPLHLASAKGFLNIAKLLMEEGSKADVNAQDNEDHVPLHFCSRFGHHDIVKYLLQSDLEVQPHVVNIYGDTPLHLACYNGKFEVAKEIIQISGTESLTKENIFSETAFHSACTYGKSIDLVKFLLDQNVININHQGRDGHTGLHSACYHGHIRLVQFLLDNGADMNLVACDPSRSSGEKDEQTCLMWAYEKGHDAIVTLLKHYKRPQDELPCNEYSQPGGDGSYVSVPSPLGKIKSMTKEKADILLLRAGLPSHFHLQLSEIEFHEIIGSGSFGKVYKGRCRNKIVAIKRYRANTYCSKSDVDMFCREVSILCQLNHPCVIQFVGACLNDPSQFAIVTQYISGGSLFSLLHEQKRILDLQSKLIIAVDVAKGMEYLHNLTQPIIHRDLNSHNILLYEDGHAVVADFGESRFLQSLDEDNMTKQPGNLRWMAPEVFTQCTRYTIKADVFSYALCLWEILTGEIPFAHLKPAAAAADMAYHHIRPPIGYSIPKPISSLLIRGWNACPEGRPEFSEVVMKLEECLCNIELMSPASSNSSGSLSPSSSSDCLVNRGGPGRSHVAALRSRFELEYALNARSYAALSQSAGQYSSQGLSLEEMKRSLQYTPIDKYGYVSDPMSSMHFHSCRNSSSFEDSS
# [9] = Toxicity in ABCD1 knock out mouse assessed as decrease in body weight at 8 to 32 mg/kg, po qd treated for 6 months; type: organism-based; settings: in vivo, 4380 h, dose 8-32 mg/kg
# [10] = biological target: T1, Very long chain fatty acid elongase 1; experiment: Inhibition of ELOVL1 in human microglia assessed as reduction of C26:0 VLCFA synthesis incubated for 48 hrs by cellular assay; type: cell-based
# [11] = Reduction in C26:0/C16:0 LPC level in ABCD1 knock out mouse CNS at 1 mg/kg, po qd measured after 3 months of dosing by LC-MS/MS analysis; type: functional; parameters: scale not given: the % may be the effect or the level left; settings: 2190 h
# [12] = Toxicity in Sprague-Dawley rat assessed as adverse effects at 5 to 50 mg/kg/day, po administered for 8 weeks and measured after cessation dosing by long-term safety study; type: organism-based; settings: in vivo, 1344 h, dose 5-50 mg/kg/day
# [13] = Toxicity in juvenile Sprague-Dawley rat assessed as clonic convulsions 5 to 75 mg/kg/day, po treatment started from postnatal day 75 to 114 days; type: organism-based; settings: in vivo, dose lower 5 mg/kg/day, time lower 75 day, dose upper 75 mg/kg/day, time upper 114 day
# [14] = Toxicity in ABCD1 knock out mouse assessed as noticeable adverse effects at 8 to 32 mg/kg, po qd treated for 6 months; type: organism-based; settings: in vivo, 4380 h, dose 8-32 mg/kg
# [15] = Reduction in C26:0 LPC level in ABCD1 knock out mouse blood at 0.5 mg/kg, po qd for 105 days by LC-MS/MS analysis relative to control; type: functional; parameters: scale not given: the % may be the effect or the level left; settings: time 105 day
# Fibroblast [16] = experiment: Reduction in C26:0/C16:0 lysophosphatidyl choline levels in healthy donor-derived human fibroblast incubated for 48 hrs; type: functional, cell-based
# [17] = biological target: T1, Very long chain fatty acid elongase 1; experiment: Inhibition of ELOVL1 in human HEK293 cells assessed as reduction of C26:0 VLCFA synthesis incubated for 48 hrs by cellular assay; type: cell-based
# [18] = Intrinsic clearance in human hepatocytes assessed per million cells; type: ADME, cell-based, Hepatocyte; settings: read-out: CLH
# Mus musculus [19] = experiment: Reduction in C26:0/C16:0 LPC level in normal diet fed ABCD1 knock out mouse blood administered orally qd measured after 14 day by LC-MS/MS analysis; type: functional, tissue-based; settings: route po, DDE = dose-dependent effect
# [20] = Plasma protein binding in rat at 5 uM; type: ADME, cell-free; settings: read-out: PPB (converted)
# Fibroblast [21] = experiment: Reduction in C26:0/C16:0 lysophosphatidyl choline levels in primary human CALD patient-derived fibroblast incubated for 48 hrs; type: functional, cell-based
# [22] = Oral bioavailability in Cynomolgus monkey at 3 mg/kg upto 24 hrs by LC/MS/MS analysis; type: ADME, organism-based, Macaca fascicularis; settings: in vivo
# [23] = biological target: T2, Very long chain fatty acid elongase 1 (Homo sapiens); experiment: Inhibition of ELOVL-1 in human HEK2936E cells assessed as reduction in C26:0 lysophosphatidyl choline synthesis at 100 nM in presence of 13C-labeled acetate measured after 48 hrs; type: cell-based
compound,measurement,setting,value
O=C(Nc1ccn(-c2ccnc(F)c2)n1)C1(c2ccccc2F)CC1,Activity,[1],Toxic
same,Activity,Mus musculus [2],Active
same,IC50,[3],43 nM
same,Activity,[4],65%
same,Activity,[5],Toxic
same,inhibition,[6],Active
same,CC50,HepG2,> 100000 nM
same,AUC(0-inf),[7],1250 ng·h/mL
same,inhibition,[8],> 50%
same,Activity,[9],Non-Toxic
same,IC50,[10],11 nM
same,Activity,[11],25%
same,Activity,[12],Non-Toxic
same,Activity,[13],Toxic
same,Activity,[14],Non-Toxic
same,Activity,[15],50%
same,Activity,Fibroblast [16],Active
same,IC50,[17],13 nM
same,hepatocyte CLint,[18],< 4 µL/min/1e6 cells
same,Activity,Mus musculus [19],Dde
same,fraction unbound at 5 µM,[20],0.071
same,Activity,Fibroblast [21],Active
same,bioavailability,[22],100%
same,inhibition,[23],Active
